ChEMBL document CHEMBL1201862, “PubChem BioAssay data set” (2004)
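Assay format: 96-well plates, 48-hour exposure. At the GI50, growth is halved.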 Calls of active or inactive are those of the source. No stated cut-off is given here; in the data, active = GI50 up to about 1.1 µM and inactive = higher.

Assays:
Test in all cases: growth of human tumour cells (NCI), 48 h
OVCAR-4 = test system: OVCAR-4
RXF 393 = test system: RXF 393
A549 = test system: A549
RPMI-8226 = test system: RPMI-8226
LXFL 529 = test system: LXFL 529
SK-MEL-2 = test system: SK-MEL-2
COLO 205 = test system: COLO 205
UO-31 = test system: UO-31
DMS-273 = test system: DMS-273
SNB-19 = test system: SNB-19
SF-539 = test system: SF-539
UACC-62 = test system: UACC-62
OVCAR-3 = test system: OVCAR-3
A498 = test system: A498
KM-20L2 = test system: KM-20L2
SN12C = test system: SN12C
HL-60 = test system: HL-60
UACC-257 = test system: UACC-257
OVCAR-5 = test system: OVCAR-5
CCRF-CEM = test system: CCRF-CEM
HT-29 = test system: HT-29
MOLT-4 = test system: MOLT-4
SW-620 = test system: SW-620
IGROV-1 = test system: IGROV-1
TK-10 = test system: TK-10
K562 = test system: K562
SF-268 = test system: SF-268
ACHN = test system: ACHN
SNB-78 = test system: SNB-78
SK-OV-3 = test system: SK-OV-3
KM12 = test system: KM12
LOX IMVI = test system: LOX IMVI
XF498 = test system: XF498
DLD-1 = test system: DLD-1
NCI-H522 = test system: NCI-H522
786-0 = test system: 786-0
HOP-62 = test system: HOP-62
M14 = test system: M14
NCI-H23 = test system: NCI-H23
EKVX = test system: EKVX
HCC 2998 = test system: HCC 2998
M19-MEL = test system: M19-MEL
HOP-92 = test system: HOP-92
NCI-H460 = test system: NCI-H460
SNB-75 = test system: SNB-75
SK-MEL-28 = test system: SK-MEL-28
HCT-15 = test system: HCT-15
CAKI-1 = test system: CAKI-1
SK-MEL-5 = test system: SK-MEL-5
OVCAR-8 = test system: OVCAR-8
Malme-3M = test system: Malme-3M
SF-295 = test system: SF-295
DMS-114 = test system: DMS-114
HCT-116 = test system: HCT-116
HOP-18 = test system: HOP-18
NCI-H226 = test system: NCI-H226
U-251 = test system: U-251

Measured: GI50

CC1(c2ccc(Cl)cc2)C2C(=O)NC(=O)C1C(=O)NC2=O (stereo not given)
> 100 µM: HCT-15
inactive: OVCAR-4 > 100 µM | RXF 393 > 100 µM | A549 > 100 µM | RPMI-8226 > 100 µM | LXFL 529 > 100 µM | SK-MEL-2 > 100 µM | COLO 205 > 100 µM | UO-31 > 100 µM | DMS-273 > 100 µM | SNB-19 > 100 µM | SF-539 > 100 µM | UACC-62 > 100 µM | OVCAR-3 > 100 µM | A498 > 100 µM | KM-20L2 56.5 µM | SN12C > 100 µM | HL-60 > 100 µM | UACC-257 > 100 µM | OVCAR-5 > 100 µM | CCRF-CEM > 100 µM | HT-29 > 100 µM | MOLT-4 > 100 µM | SW-620 > 100 µM | IGROV-1 > 100 µM | TK-10 > 100 µM | K562 > 100 µM | SF-268 > 100 µM | ACHN > 100 µM | SNB-78 > 100 µM | SK-OV-3 > 100 µM | KM12 > 100 µM | LOX IMVI > 100 µM | XF498 > 100 µM | DLD-1 > 100 µM | NCI-H522 > 100 µM | 786-0 > 100 µM | HOP-62 > 100 µM | M14 > 100 µM | NCI-H23 > 100 µM | EKVX > 100 µM | HCC 2998 > 100 µM | M19-MEL > 100 µM | HOP-92 > 100 µM | NCI-H460 > 100 µM | SNB-75 > 100 µM | SK-MEL-28 > 100 µM | CAKI-1 > 100 µM | SK-MEL-5 > 100 µM | OVCAR-8 > 100 µM | Malme-3M > 100 µM | SF-295 > 100 µM

O=C(Nc1cc(Cl)ccc1Cl)c1cc2cccc(Br)c2oc1=O
inactive: RXF 393 > 100 µM | DMS-114 > 100 µM | A549 > 100 µM | RPMI-8226 > 100 µM | SK-MEL-2 > 100 µM | COLO 205 > 100 µM | UO-31 > 100 µM | HCT-116 > 100 µM | DMS-273 > 100 µM | HOP-18 > 100 µM | SNB-19 > 100 µM | SF-539 56.4 µM | UACC-62 > 100 µM | OVCAR-3 59.8 µM | KM-20L2 > 100 µM | SN12C > 100 µM | HL-60 > 100 µM | UACC-257 > 100 µM | CCRF-CEM > 100 µM | HT-29 > 100 µM | MOLT-4 > 100 µM | SW-620 > 100 µM | IGROV-1 > 100 µM | TK-10 > 100 µM | K562 > 100 µM | NCI-H226 > 100 µM | ACHN > 100 µM | SK-OV-3 > 100 µM | KM12 > 100 µM | LOX IMVI > 100 µM | U-251 70.5 µM | XF498 21.9 µM | DLD-1 > 100 µM | NCI-H522 > 100 µM | 786-0 > 100 µM | HOP-62 47.2 µM | M14 > 100 µM | NCI-H23 > 100 µM | EKVX > 100 µM | M19-MEL > 100 µM | NCI-H460 > 100 µM | SNB-75 34.9 µM | SK-MEL-28 > 100 µM | SK-MEL-5 > 100 µM | OVCAR-8 57.1 µM | Malme-3M > 100 µM | SF-295 63.4 µM
> 100 µM: HCT-15
